Test results: patent publication US20260317344A1, “EGFR INHIBITORS FOR TREATING DISEASE” (BLOSSOMHILL THERAPEUTICS, INC., priority 2023, published 2026)

Columns and labels:
Assay type in all cases: cell-based
PC-9 cells = experiment: 5-Day CellTiter Glo (CTG) cell proliferation assay, PC-9; details: Homo sapiens; PC-9 cells (d746-750 EGFR), 5-day CTG proliferation, 120 hours; read-out: PC-9 IC50
Method: (§1) 5-Day CellTiter Glo (CTG) Cell Proliferation Assays (PC9, H1975, H827)
(§2) Cell proliferation assays were carried out in NSCLC cells with EGFR activation mutations. Both PC-9 cells and HCC827 cells (purchased from DSMZ) carry a Glu746-Ala750 deletion (d746-750) mutation in exon 19 of the EGFR gene and NCI-H1975 cells carry both L858R activation mutation and T790M gatekeeper mutation in the EGFR gene. One thousand PC-9, NCI-H1975 or HCC827 cells/100 μL per well were seeded in 96-well black plate with transparent bottom and then treated with indicated compounds in a 9-dose dilution series dispensed using TECAN d300e liquid dispenser. Cells were incubated with compounds for 120 hours at 37° C. and 5% CO2. Cell proliferation was measured using CellTiter-Glo 2.0 luciferase-based ATP detection assay (Promega, Madison, WI) at […] per well following the manufacturer's protocol. Plates were then read on a TECAN Sparks multimode microplate reader. Data was analyzed using GraphPad Prism 9 (GraphPad Software, San Diego, CA) to obtain IC50 values.

HCC827 cells = experiment: 5-Day CellTiter Glo (CTG) cell proliferation assay, HCC827; details: Homo sapiens; HCC827 cells (d746-750 EGFR), 5-day CTG proliferation, 120 hours; read-out: HCC827 IC50
Method: as §1, §2

NCI-H1975 cells = experiment: 5-Day CellTiter Glo (CTG) cell proliferation assay, NCI-H1975; details: Homo sapiens; NCI-H1975 cells (L858R/T790M EGFR), 5-day CTG proliferation, 120 hours; read-out: H1975 IC50
Method: as §1, §2

SMILES	IC50 (PC-9 cells) [nM]	IC50 (HCC827 cells) [nM]	IC50 (NCI-H1975 cells) [nM]
CCOc1nn([C@@H](C)CO)c2c1/C=C/c1n[nH]c3c(C)nc(cc13)-c1c(C)nn(C)c1O[C@H](C)[C@@H](C)N(C)C2 [Ex. 132a, (2S)-2-[(11R,17E)-16-ethoxy-6,8,10,11,12,20-hexamethyl-2,8,10,11,12,13-hexahydro-14H-5,3-(azenometheno)tripyrazolo[3,4-f:3′,4′-j:4″,3″-n][1,4]oxazacyclopentadecin-14-yl]propan-1-ol]	1.12	0.41	0.77
CCOc1nn([C@@H](C)CO)c2c1/C=C/c1n[nH]c3cnc(cc13)-c1c(COC)nn(C)c1O[C@@H](C)CN(C)C2 [Ex. 130, (2S)-2-[(10S,17E)-16-ethoxy-6-(methoxymethyl)-8,10,12-trimethyl-2,8,10,11,12,13-hexahydro-14H-5,3-(azenometheno)tripyrazolo[3,4-f:3′,4′-j:4″,3″-n][1,4]oxazacyclopentadecin-14-yl]propan-1-ol]	2.32	0.75	176
CCOc1nn([C@@H](C)CO)c2c1/C=C/c1n[nH]c3c(OC)nc(cc13)-c1c(C)nn(C)c1O[C@@H](C)CN(C)C2 [Ex. 96, (2S)-2-[(10S,17E)-16-ethoxy-20-methoxy-6,8,10,12-tetramethyl-2,8,10,11,12,13-hexahydro-14H-5,3-(azenometheno)tripyrazolo[3,4-f:3′,4′-j:4″,3″-n][1,4]oxazacyclopentadecin-14-yl]propan-1-ol]	25.5	2.97	27.2
CCOc1nn([C@@H](C)CO)c2c1/C=C/c1n[nH]c3c(C)nc(cc13)-c1c(C)nn(C)c1O[C@@H](C)[C@@H](C)N(C)C2 [Ex. 132b, (2S)-2-[(11R,17E)-16-ethoxy-6,8,10,11,12,20-hexamethyl-2,8,10,11,12,13-hexahydro-14H-5,3-(azenometheno)tripyrazolo[3,4-f:3′,4′-j:4″,3″-n][1,4]oxazacyclopentadecin-14-yl]propan-1-ol]	0.54	0.29	0.7
Cc1nn(C)c2c1-c1cc3c(n[nH]c3c(C)n1)/C=C/c1cnn([C@@H](C)CO)c1CN(C1CC1)C[C@H](C)O2 [Ex. 127, (2S)-2-[(10S,17E)-12-cyclopropyl-6,8,10,20-tetramethyl-2,8,10,11,12,13-hexahydro-14H-5,3-(azenometheno)tripyrazolo[3,4-f:3′,4′-j:4″,3″-n][1,4]oxazacyclopentadecin-14-yl]propan-1-ol]	1.26	0.37	1.92
CCOc1nn([C@@H](C)CO)c2c1/C=C/c1n[nH]c3c(C)nc(cc13)-c1c(C)nn(C)c1O[C@@H](C)CN(CC)C2 [Ex. 145, (2S)-2-[(10S,17E)-16-ethoxy-12-ethyl-6,8,10,20-tetramethyl-2,8,10,11,12,13-hexahydro-14H-5,3-(azenometheno)tripyrazolo[3,4-f:3′,4′-j:4″,3″-n][1,4]oxazacyclopentadecin-14-yl]propan-1-ol]	0.37	0.24	0.58
Cc1nn(C)c2c1-c1cc3c(n[nH]c3c(C)n1)/C=C/c1cnn(CCO)c1CN(C1CC1)C[C@H](C)O2 [Ex. 133, 2-[(10S,17E)-12-cyclopropyl-6,8,10,20-tetramethyl-2,8,10,11,12,13-hexahydro-14H-5,3-(azenometheno)tripyrazolo[3,4-f:3′,4′-j:4″,3″-n][1,4]oxazacyclopentadecin-14-yl]ethan-1-ol]	34.2	8.87	40.5
CCOc1nn([C@@H](C)CO)c2c1/C=C/c1n[nH]c3c(O)nc(cc13)-c1c(C)nn(C)c1O[C@@H](C)CN(C)C2 [Ex. 99, (10S,17E)-16-ethoxy-14-[(2S)-1-hydroxypropan-2-yl]-6,8,10,12-tetramethyl-2,10,11,12,13,14-hexahydro-8H-5,3-(azenometheno)tripyrazolo[3,4-f:3′,4′-j:4″,3″-n][1,4]oxazacyclopentadecin-20-ol]	351	38.1	338
Cc1nn(C)c2c1-c1cc3c(n[nH]c3c(C)n1)/C=C/c1cnn([C@@H](C)CO)c1CN(C1CC1)[C@H](C)CO2 [Ex. 128, (2S)-2-[(11R,17E)-12-cyclopropyl-6,8,11,20-tetramethyl-2,8,10,11,12,13-hexahydro-14H-5,3-(azenometheno)tripyrazolo[3,4-f:3′,4′-j:4″,3″-n][1,4]oxazacyclopentadecin-14-yl]propan-1-ol]	17	3.32	56.8

The remaining lines, values ahead:

IC50 (PC-9 cells) [nM]	IC50 (HCC827 cells) [nM]	IC50 (NCI-H1975 cells) [nM]	SMILES
116	73.8		CCOc1nn(C)c2c1/C=C/c1n[nH]c3c(C)nc(cc13)-c1c(C)nn(C)c1O[C@@H](C)CN(C(=O)CC)C2 [Ex. 135, 1-[(10S,17E)-16-ethoxy-6,8,10,14,20-pentamethyl-2,8,10,11,13,14-hexahydro-12H-5,3-(azenometheno)tripyrazolo[3,4-f:3′,4′-j:4″,3″-n][1,4]oxazacyclopentadecin-12-yl]propan-1-one]
21.6	9.09	519	COCc1nn(C)c2c1-c1cc3c(n[nH]c3c(C)n1)/C=C/c1cnn(C)c1CN(C(=O)CCN(C)C)C[C@H](C)O2 [Ex. 143, 3-(dimethylamino)-1-[(10S,17E)-6-(methoxymethyl)-8,10,14,20-tetramethyl-2,8,10,11,13,14-hexahydro-12H-5,3-(azenometheno)tripyrazolo[3,4-f:3′,4′-j:4″,3″-n][1,4]oxazacyclopentadecin-12-yl]propan-1-one]
353	60.5	671	CCOc1nn(C)c2c1/C=C/c1n[nH]c3c(C)nc(cc13)-c1c(C)nn(C)c1O[C@@H](C)CN(C(C)=O)C2 [Ex. 131, 1-[(10S,17E)-16-ethoxy-6,8,10,14,20-pentamethyl-2,8,10,11,13,14-hexahydro-12H-5,3-(azenometheno)tripyrazolo[3,4-f:3′,4′-j:4″,3″-n][1,4]oxazacyclopentadecin-12-yl]ethan-1-one]
29.9	6.1		COCc1nn(C)c2c1-c1cc3c(n[nH]c3c(C)n1)/C=C/c1cnn([C@@H](C)CO)c1CN(C1CC1)[C@H](C)CO2 [Ex. 140, (2S)-2-[(11R,17E)-12-cyclopropyl-6-(methoxymethyl)-8,11,20-trimethyl-2,8,10,11,12,13-hexahydro-14H-5,3-(azenometheno)tripyrazolo[3,4-f:3′,4′-j:4″,3″-n][1,4]oxazacyclopentadecin-14-yl]propan-1-ol]
113	90.7		CCOc1nn(C)c2c1/C=C/c1n[nH]c3c(C)nc(cc13)-c1c(C)nn(C)c1O[C@@H](C)CN(C(=O)C(C)C)C2 [Ex. 137, 1-[(10S,17E)-16-ethoxy-6,8,10,14,20-pentamethyl-2,8,10,11,13,14-hexahydro-12H-5,3-(azenometheno)tripyrazolo[3,4-f:3′,4′-j:4″,3″-n][1,4]oxazacyclopentadecin-12-yl]-2-methylpropan-1-one]
4.35	0.82	429	COCc1nn(C)c2c1-c1cc3c(n[nH]c3c(C)n1)/C=C/c1cnn([C@@H](C)CO)c1CN(C1CC1)C[C@H](C)O2 [Ex. 139, (2S)-2-[(10S,17E)-12-cyclopropyl-6-(methoxymethyl)-8,10,20-trimethyl-2,8,10,11,12,13-hexahydro-14H-5,3-(azenometheno)tripyrazolo[3,4-f:3′,4′-j:4″,3″-n][1,4]oxazacyclopentadecin-14-yl]propan-1-ol]
67	34.4	266	CCOc1nn(C)c2c1/C=C/c1n[nH]c3c(C)nc(cc13)-c1c(C)nn(C)c1O[C@@H](C)CN(C(=O)C1CC1)C2 [Ex. 136, cyclopropyl[(10S,17E)-16-ethoxy-6,8,10,14,20-pentamethyl-2,8,10,11,13,14-hexahydro-12H-5,3-(azenometheno)tripyrazolo[3,4-f:3′,4′-j:4″,3″-n][1,4]oxazacyclopentadecin-12-yl]methanone]
